Assay results as given in US9061079B2, “Peptides that home to atherosclerotic plaques and methods of use” (Sanford-Burnham Medical Research Institute, priority 2011, dated 2015).
Ends that are not written are not given here. FAM = fluorescein label

Experiments:
[1] = tested on: porcine iliofemoral arteries; settings: arteries infected with adenoviral vector encoding tk, then exposure to ganciclovir; cited from earlier work
[2] = tested on: cells released from plaques; test: FACS analysis of cells released from plaques after in vivo circulation of FAM-peptides; parameters: species or system mice (ApoE-null); settings: for % of FAM positive cells among cells released from plaques: after 4 hours in vivo circulation
From the text: (§1) Atherosclerotic plaques in male and female mice homozygous for the ApoetmlUnc mutation (ApoE-null mice) (The Jackson Laboratory) were induced by maintaining the mice on a high fat diet (Reddick et al., Arterioscler. Thromb. 14:141-147 (1994); Maeda et al., Atherosclerosis 195:75-82 (2007)) for 6 to 8 months. Healthy aortas were obtained from age-matched C7BL/6 wild-type mice fed on a normal diet. The mice were housed and all procedures performed with the approval and according to standards of the University of California, Santa Barbara and University of California, Davis Institutional Animal Care and Use Committees. To test peptide homing, the mice were injected intravenously via retro-orbital under isoflurane inhalation (isoflurane 2% to 3% vol/vol+2 L/min O2) anesthesia and, when applicable, subsequently perfused with high glucose DMEM through the left ventricle to remove unbound reagent. Tissues were excised and left unfixed or fixed with 4% paraformaldehyde.
Cells from plaques and other tissues were released into suspension by 2-hour incubation at 37° C. in a tissue digestion cocktail containing 450 U/mL collagenase type 1 (Worthington Biochemical), 1 mg/mL soybean trypsin inhibitor (Worthington Biochemical), 4.7 U/mL elastase (Worthington Biochemical), 1 mg/mL DNase 1 (Sigma Aldrich) and 0.5% fetal calf serum (FCS). CD11b PE-Cy5 (rat monoclonal, eBioscience) was used to identify monocytes/macrophages. Positive cells were quantified on GUAVA FACS instrument (Millipore) and data were analyzed using FCS Express Version 3 (De Novo Software).
To detect peptide homing to plaques, the distribution of intravenously injected peptides that had been labeled with fluorescein ([…]; FAM) were analyzed. […] Staining with an anti-fluorescein antibody confirmed the presence of LyP-1 in the plaques. For comparison, mice were also injected with a peptide previously shown to home to plaques, CREKA (SEQ ID NO:4) (Peters et al., Proc. Natl. Acad. Sci. USA 106:9815-9819 (2009)). […]

atherosclerotic plaques [3] = test: Homing of intravenously injected FAM-labeled peptides to plaques, fluorescence histology of aorta sections; type: in vivo, mice (ApoE-null); settings: for accumulation in plaque tissue (fluorescence of aorta sections): atherosclerotic ApoE-null mice, 100 μg FAM-peptide intravenously, 1 hour circulation
From the text: as §1
Fresh frozen OCT-embedded tissue was sectioned at 7 μm, fixed with ice cold acetone, blocked with 4% serum in PBS, and stained with antibodies. The following antibodies were used: anti-mouse p32 (rabbit polyclonal; (Fogal et al., supra (2008)), CD68 (rat monoclonal, eBioscience), CD11b (rat monoclonal, eBioscience), CD31 (rat monoclonal, eBioscience), podoplanin (hamster monoclonal, eBioscience), LYVE-1 (rat monoclonal, eBioscience), anti-FITC-HRP (goal polyclonal, ACRIS). Purified rat IgG2a K isotype control (BD Pharmingen), normal rabbit IgG (R&D) and normal goat IgG (R&D) were used as controls. The following secondary antibodies from Invitrogen were used for detection: goat anti-rat 488/546, goat anti-rabbit 488/546, donkey anti-goat 488/546, goat anti-hamster 546 and goat anti-rat 647. Primary antibodies were incubated for 1 to 4 hours at room temperature, or at 4° C. to detect cell surface expression. Stained tissue sections were mounted in Vectorshield DAPI-containing mounting media (Vector lab). […]
Tissue sections were examined under a FluoView™ 500 confocal laser-scanning microscope (Olympus) or BX60 fluorescence microscope with MiroFire camera (Olympus). Whole-tissue uptake of fluorescein-labeled peptides following in vivo circulation was imaged using a 530-nm viewing filter, Illumatool light source (Light Tools Research) and recorded with a Canon XTi DSLR camera.
To detect peptide homing to plaques, the distribution of intravenously injected peptides that had been labeled with fluorescein ([…]; FAM) were analyzed. […]
Atherosclerotic mice were injected with 100 μg of FAM-LyP-2 and the probe was allowed to circulate for 1 hour. Following 1 hour of circulation, the aorta was collected and the peptide was detected in tissue sections by fluorescence detection.

[4] = tested on: primary cells released from plaques; test: Peptide binding ex vivo (FACS); type: cell-based, mice (ApoE-null); settings: 1 nmol FAM-peptide, 10 min on ice
Protocol: (§2) Dead cells were first removed from the cell suspension released from aorta, isolated macrophages from 4T1 tumors and spleen and bone marrow cells using Dead cell removal kit (Miltenyi Biotec). Cells were incubated with 1 nmol of either FAM-LyP-1 or FAM-ARAL (SEQ ID NO:5) for 10 min on ice. After washing, the cell pellets were resuspended in buffer containing 1 μg propidium iodide. Cells positive for FAM and propidium iodide staining were quantified on GUAVA FACS instrument (Millipore) and data were analyzed using FCS Express Version 3 (De Novo Software). The % of viable cells after dead cell removal in each case was >75%.

[5] = tested on: CD11b-positive macrophages from 4T1-tumors; test: Peptide binding ex vivo (FACS); type: cell-based, mice (BALB/c); settings: 1 nmol FAM-peptide, 10 min on ice
Protocol: (§3) To produce 4T1 tumors, normal female BALB/c mice were orthotopically injected into the mammary fat pad with 1×10^6 4T1 cells suspended in 100 μL of PBS. All animal experimentation received approval from the Animal Research Committee of University of California, Santa Barbara. Fully grown 4T1 tumors and control spleen were excised from the mice two weeks after inoculation, minced and incubated with tissue digestion cocktail containing 2 mg/mL Collagenase IV (Worthington Biochem Corp) and 1 mg/mL DNAse 1 (Sigma) solution in high glucose DMEM media (Gibco) at 37° C. for 1 hour. Cells were passed through 70 μm nylon mesh cell strainer (BD). CD11b-positive macrophages were isolated using the MACS CD11b-positive microbeads (Miltenyi Biotec).
as §2

[6] = tested on: monocytes/macrophages isolated from spleen; test: Peptide binding ex vivo (FACS); type: cell-based, mice; settings: 1 nmol FAM-peptide, 10 min on ice
Protocol: as §3, §2

bone marrow cells = test: Peptide binding ex vivo (FACS); type: cell-based, mice (ApoE); settings: 1 nmol FAM-peptide, 10 min on ice
Protocol: Bone marrow cells were isolated from the tibias and femurs of ApoE mice on high fat diet by flushing high glucose DMEM media (Gibco) using an 18 gauge needle and passed through a 70 μm nylon mesh cell strainer (BD).
as §2

4T1 tumors = test: Treatment of 4T1 tumor mice with peptide, effect on tumor macrophages; type: in vivo, mice (BALB/c); settings: 60 μg daily tail vein injections for 12 days, versus control peptide
Protocol: The effect of LyP-1 peptide treatment of mice with tumors was tested. To produce 4T1 breast cancer tumors, normal female BALB/c mice were orthotopically injected into the mammary fat pad with 1×10^6 4T1 cells suspended in 100 μL of PBS. The mice were treated with daily tail vein injections of 60 μg of LyP-1 or control peptide ([…]; SEQ ID NO:6) for 12 days. […] Cell suspensions were prepared from 4T1 tumors from mice treated with LyP-1 or the control peptide. The tumors were incubated for 1 hour at 37° C. in a tissue digestion cocktail containing 2 mg/mL Collagenase IV (Worthington Biochem Corp) and 1 mg/mL DNAse 1 (Sigma) in high glucose DMEM media (Gibco). The resulting cell suspension was passed through 70 μm nylon mesh cell strainer (BD), and the live cells were double stained for cell surface p32 (rabbit anti-mouse p32, Fogal et al., supra (2008)) and macrophages (rat anti-mouse CD11b, ebioscience) and analyzed by FACS.

dermatitis = test: Treatment of dermatitis in ApoE-null mice on high-fat diet; type: in vivo
Protocol: The effect of LyP-1 treatment on dermatitis was tested. ApoE-null mice that were on a high-fat diet and suffered from severe dermatitis refractory to topical antibiotic treatment were treated with intraperitoneal injections of 200 μg of LyP-1 or control peptide ([…]; SEQ ID NO:6) three times a week for one month (while continuing their diet). The condition of the skin before and after the treatment was recorded in photographs. […] Thus, LyP-1 treatment improves dermatitis.
The effect of LyP-1 on skin dermatitis correlates with reduced in p32 expression and macrophage accumulation. Mice treated as above in FIG. 19 were intravenously injected with 100 μL of 1 mM fluorescein-labeled LyP-1 and peptide was allowed to circulate for 2 hours. Sections of skin biopsies obtained before and after 4 weeks of LyP-1 treatment were analyzed.

atherosclerotic plaques [7] = test: Effect of treatment on plaque formation; type: in vivo, mice (ApoE null); settings: 200 μg intraperitoneally three times a week for one month, high-fat diet
Protocol: (§4) The effect of LyP-1 treatment on plaque formation was tested. ApoE null mice fed a high-fat diet for 5 months were treated with intraperitoneal injections of 200 μg of LyP-1 or control peptide ([…]; SEQ ID NO:6) three times a week for one month (while continuing their diet).

plaque macrophages = test: Effect of treatment on plaque macrophages (FACS of cells released from plaques); type: in vivo, mice (ApoE null); settings: after 4 weeks of treatment, versus control-treated aortas
Protocol: as §4
The effect of LyP-1 treatment on plaque macrophages was tested.

mitochondrial membranes = settings: concentration of 10 μM; cited from earlier work
[8] = after 4 weeks of treatment, versus control-treated mice
[9] = 100 μL of 1 mM intravenously, 2 hours circulation

Nc1nc(O)c2ncn(COC(CO)CO)c2n1 [ganciclovir]
reduction of neointimal thickening following balloon injury [1]: 50-87%

ARALPSQRSR
% of FAM positive cells among cells released from plaques [2]: 7.5±4.1%

CGNKRTRGC (disulfide (positions not given here); not fully specified (bridges); also: cyclic, kind not given here) [LyP-1]
accumulation in healthy aortas and non-aortic tissues of the atherosclerotic mice (atherosclerotic plaques [3]; intravenous FAM-peptide): no significant accumulation | binding to primary cells released from plaques [4]: significant binding | binding to CD11b-positive macrophages from 4T1-tumors [5]: significant binding | binding to monocytes/macrophages isolated from spleen [6]: little binding | binding to bone marrow cells (bone marrow cells): little binding | macrophages positive for cell surface p32 in 4T1 tumors (4T1 tumors): reduced | total number of macrophages (CD11b-positive cells) in 4T1 tumors (4T1 tumors): reduced | skin condition (dermatitis) (dermatitis; 200 μg intraperitoneally three times a week for one month): significant improvement of their skin condition | cells positive for CD11b and p32 in skin (dermatitis; [8]): smaller numbers of cells positive for CD11b and p32 | skin thickness of healed dermatitis skin (dermatitis; [8]): reduced thickness | plaque formation in excised ascending and descending aorta (atherosclerotic plaques [7]): reduced plaque formation | percentage of total macrophages (p32-positive and negative) among cells released from plaques (plaque macrophages): lower percentage of total macrophages

CREKA
CD11b-positive plaque cells positive for peptide uptake ([2]; 4 hours after intravenous injection): taken up by a small number of CD11b-negative cells | % of FAM positive cells among cells released from plaques [2]: 18.1±4.6%

D(KLAKLAK)2 (KLAKLAKKLAKLAK; D-amino acids)
mitochondrial swelling (mitochondrial membranes): marked mitochondrial swelling

FAM-ARALPSQRSR: control peptide ARALPSQRSR labeled with FAM ({FAM}-ARALPSQRSR) [reference compound]
accumulation in plaque tissue (fluorescence of aorta sections) (atherosclerotic plaques [3]): did not accumulate in the plaques

FAM-CREKA: CREKA peptide labeled with fluorescein (FAM) ({FAM}-CREKA) [reference compound]
accumulation in plaque tissue (fluorescence of aorta sections) (atherosclerotic plaques [3]): essentially confined to the surface of the plaques

FAM-LyP-1: LyP-1 peptide labeled with fluorescein (FAM) ({FAM}-CGNKRTRGC; disulfide (positions not given here); not fully specified (bridges); also: cyclic, kind not given here)
accumulation in plaque tissue (fluorescence of aorta sections) (atherosclerotic plaques [3]): extensive accumulation of FAM-LyP-1 inside the plaque tissue | peptide homing to healed dermatitis skin from LyP-1-treated mice (dermatitis; [9]): attenuated LyP-1 homing | peptide homing to inflamed skin from control-treated mice (dermatitis; [9]): robust LyP-1 homing | peptide homing to normal skin (dermatitis; [9]): no LyP-1 homing
